Assay results: PMC10520196 (Clinical Pharmacokinetics, 2023)

Columns and labels:
Observed C24 in P1093 = assay type: in vivo; conditions: human, plasma, oral, Geometric mean C24, P1093, ≥ 6 to < 10 kg
[1] = maturation half-time, fixed; based on paracetamol; ref Anderson et al.; cited from earlier work
[2] = Final pediatric population PK model; assay type: in vivo, human
[3] = healthy adult volunteers, same dose; cited from earlier work
[4] = final PopPK model, reference 70-kg subject

C[C@@H]1CCO[C@H]2Cn3cc(C(=O)NCc4ccc(F)cc4F)c(=O)c(O)c3C(=O)N12 [dolutegravir, Dolutegravir]
concentration at 24 h (Observed C24 in P1093; 10 mg, < 6 months of age, DT 10 mg QD): 1820 ng/mL
concentration at 24 h (Observed C24 in P1093; 10 mg, ≥ 6 months of age, DT 10 mg QD): 735 ng/mL
concentration at 24 h (Observed C24 in P1093; 15 mg, ≥ 6 months of age, DT 15 mg QD): 908 ng/mL
TM50 [1]: 52.2 FIX week
KA (DT and granules) ([2]; calculated as 0.854 × 2.04): KA (DT and granules) = 1.74 (95% CI 1.20–2.28), calculated as 0.854 × 2.04 (95% CI 0.854 × 1.41–0.854 × 2.67)
V/F~WT ([2]; effect of weight on V/F (exponent)): 0.556
KA~DT and granules ([2]; final PopPK model, factor on KA of FCT): 2.04
KA, FCT ([2]; final PopPK model, film-coated tablet): 0.854 h^–1
CL/F [2, 4]: 1.03 L/h
V/F [2, 4]: 13.6 L
ω^2CL point estimate ([2]; inter-individual variability of CL/F, variance): 0.0863
ω^2KA point estimate ([2]; inter-individual variability of KA, variance): 0.762
ω^2V point estimate ([2]; inter-individual variability of V/F, variance): 0.0698
ω^2IOV,KA point estimate ([2]; inter-occasion variability of KA, variance): 0.610
F, fasted DT/granules ([2]; relative bioavailability): 1.53
F, without regard to food, FCT ([2]; relative bioavailability): 1.10
F, fasted FCT ([2]; relative bioavailability, reference, fixed): 1.00
Relative bioavailability of DT vs granules [3]: comparable
